# Literature values, collected in article PMC7504770, “Mechanistic Insights into the Chaperoning of Human Lysosomal-Galactosidase Activity: Highly Functionalized Aminocyclopentanes and C-5a-Substituted Derivatives of 4-epi-Isofagomine” (Molecules, 2020).
# pIC50, pKi: −log10 of the molar value.
# Columns and labels:
# [1] = target: T1, human lysosomal acid β-galactosidase (GH35) (Homo sapiens, UniProt P16278); conditions: read-out: β-Gal human lys. (GH35); cited from earlier work
# T1 construct: Activity was measured in normal fibroblasts; endogenous in cells; host or cells: normal human skin fibroblasts (homogenate)
# T1 sequence (P16278 29-677): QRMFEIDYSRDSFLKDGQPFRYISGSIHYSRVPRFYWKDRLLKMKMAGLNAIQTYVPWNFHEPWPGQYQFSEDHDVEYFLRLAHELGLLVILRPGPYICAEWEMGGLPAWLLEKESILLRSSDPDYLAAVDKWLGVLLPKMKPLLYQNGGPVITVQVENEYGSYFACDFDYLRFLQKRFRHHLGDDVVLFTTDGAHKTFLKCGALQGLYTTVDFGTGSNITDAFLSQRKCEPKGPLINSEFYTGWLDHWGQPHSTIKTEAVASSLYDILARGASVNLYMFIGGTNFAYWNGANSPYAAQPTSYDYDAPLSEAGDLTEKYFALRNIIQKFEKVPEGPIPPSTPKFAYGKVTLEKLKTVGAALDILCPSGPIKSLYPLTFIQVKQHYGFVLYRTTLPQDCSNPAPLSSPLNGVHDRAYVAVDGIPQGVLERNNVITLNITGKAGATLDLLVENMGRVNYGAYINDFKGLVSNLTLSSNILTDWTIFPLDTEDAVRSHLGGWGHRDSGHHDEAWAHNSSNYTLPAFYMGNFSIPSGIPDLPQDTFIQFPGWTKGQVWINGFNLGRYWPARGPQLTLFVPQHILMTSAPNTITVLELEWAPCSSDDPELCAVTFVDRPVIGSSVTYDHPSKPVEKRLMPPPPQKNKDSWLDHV
# [2] = target: α-glucosidase from S. cerevisiae (GH13); conditions: read-out: Ki S. cer. (α-Glc) (GH13); cited from earlier work
# [3] = target: T2, recombinant human lysosomal β-glucocerebrosidase (GCase, GH30) (Homo sapiens, UniProt P04062); conditions: read-out: Ki GCase (β-Glc) (GH30); cited from earlier work
# T2 sequence (P04062 40-536): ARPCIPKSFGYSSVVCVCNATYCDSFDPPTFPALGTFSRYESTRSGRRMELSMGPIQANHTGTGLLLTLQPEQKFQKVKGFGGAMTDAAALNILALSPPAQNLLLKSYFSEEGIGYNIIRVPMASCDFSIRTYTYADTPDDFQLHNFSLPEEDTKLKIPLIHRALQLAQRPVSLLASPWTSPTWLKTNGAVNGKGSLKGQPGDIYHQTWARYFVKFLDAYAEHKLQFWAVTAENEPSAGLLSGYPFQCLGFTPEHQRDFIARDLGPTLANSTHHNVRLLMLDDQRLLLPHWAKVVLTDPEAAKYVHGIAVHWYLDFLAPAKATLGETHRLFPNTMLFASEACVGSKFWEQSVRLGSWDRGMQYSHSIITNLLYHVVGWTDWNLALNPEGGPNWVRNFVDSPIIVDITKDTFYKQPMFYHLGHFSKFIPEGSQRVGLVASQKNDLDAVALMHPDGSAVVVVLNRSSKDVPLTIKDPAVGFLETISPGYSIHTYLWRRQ
# [4] = target: T3, β-glucosidase/β-galactosidase from Agrobacterium sp. (Abg, GH1) (Agrobacterium sp., UniProt P12614); conditions: read-out: Ki Abg (β-Glc/Gal) (GH1); cited from earlier work
# T3 sequence (P12614 1-459): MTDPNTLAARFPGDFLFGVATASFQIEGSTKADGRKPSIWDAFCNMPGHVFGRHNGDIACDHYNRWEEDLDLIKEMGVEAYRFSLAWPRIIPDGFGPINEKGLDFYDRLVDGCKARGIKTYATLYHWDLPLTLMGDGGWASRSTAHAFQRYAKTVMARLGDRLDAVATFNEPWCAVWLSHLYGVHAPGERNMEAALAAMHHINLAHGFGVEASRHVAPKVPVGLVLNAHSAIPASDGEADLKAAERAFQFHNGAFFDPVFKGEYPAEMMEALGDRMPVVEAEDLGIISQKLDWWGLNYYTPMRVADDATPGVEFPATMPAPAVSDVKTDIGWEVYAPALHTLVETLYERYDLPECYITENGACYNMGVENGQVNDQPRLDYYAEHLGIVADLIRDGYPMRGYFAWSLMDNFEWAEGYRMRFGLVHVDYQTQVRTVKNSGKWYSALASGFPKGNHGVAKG
SMILES,pIC50 [1],pKi [2],pKi [3],pKi [4]
CN(C)c1cccc2c(S(=O)(=O)NCCCCCC[C@@H]3NC[C@@H](O)[C@@H](O)[C@H]3CO)cccc12 [Compound 14],6.42,< 3.00,5.92,7.76
CN(C)c1cccc2c(S(=O)(=O)NCCCCCCN[C@H]3[C@H](O)[C@@H](O)[C@@H](O)[C@H]3CO)cccc12 [Compound 17],6.40,< 3.00,7.71,8.92
